Data from EP2768830B1, “APOPTOSIS-INDUCING AGENTS FOR THE TREATMENT OF CANCER AND IMMUNE AND AUTOIMMUNE DISEASES” (AbbVie Inc., priority 2011, dated 2013).

System: mouse FL5.12 cells transfected with Bcl-XL
Assay: FL5.12 cellular assay (cell viability, CellTiter-Glo);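 note: each EC50 determination derived from duplicate measurements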
Assay type: cell-based
Details: FL5.12 cells transfected with Bcl-XL, IL-3-depleted, 3% FBS assay media, 24 hours, CellTiter-Glo; read-out: FL5.12 Bcl-xL, - IL3, EC 50
Protocol: For assaying the compound activity, the cells were exchanged into an IL-3-depleted deprivation media, which was identical to the growth media except for the absence of FBS and WEHI-3B conditional media, for 2 days. Then the cells were exchanged to 3% FBS assay media (RPMI with 2 mM glutamine, 1% 100 mM sodium pyruvate, 2% 1 M HEPES, 4 µL/L of β-mercaptoethanol, 1% penicillin-streptomycin, 3% FBS). Compounds in series dilutions were added, and the cells were cultured for 24 hours. Compounds in series dilutions were added, and the cells were cultured for 24 hours. Cell viability was assayed using the CellTiter-Glo assay (Promega Corp., Madison, WI) according to the manufacturer instructions. Individual determinations were the result of duplicate values.

**Q.** Which EC50 does the source give for “6-[8-(1,3-benzothiazol-2-ylcarbamoyl)-3,4-dihydroisoquinolin-2(1H)-yl]-3-(5-methyl-1-{[6-(pyrrolidin-1-yl)pyridin-2-yl]methyl}-1H-pyrazol-4-yl)pyridine-2-carboxylic acid and 6-(8-(1,3-benzothiazol-2-ylcarbamoyl)-3,4-dihydroisoquinolin-2(1H)-yl)-3-(3-methyl-1-((6-(pyrrolidin-1-yl)pyridin-2-yl)methyl)-1H-pyrazol-4-yl)pyridine-2-carboxylic acid [Example 32]” here?
**A.** Its EC50 is 0.216 µM.

**Q.** Which EC50 does the source give for `Cc1c(CC2CCCCC2)cccc1-c1ccc(N2CCc3cccc(C(=O)Nc4nc5ccccc5s4)c3C2)nc1C(=O)O` [Example 107, 6-[8-(1,3-benzothiazol-2-ylcarbamoyl)-3,4-dihydroisoquinolin-2(1H)-yl]-3-[3-(cyclohexylmethyl)-2-methylphenyl]pyridine-2-carboxylic acid] here?
**A.** Its EC50 is 0.01 µM.

**Q.** With `O=C(Nc1nc2ccccc2s1)c1cccc2c1CN(c1ccc(-c3ccn(Cc4ccccc4)c3)c(C(=O)O)n1)CC2` [Example 125, 6-[8-(1,3-benzothiazol-2-ylcarbamoyl)-3,4-dihydroisoquinolin-2(1H)-yl]-3-(1-benzyl-1H-pyrrol-3-yl)pyridine-2-carboxylic acid] as the molecule, how does the EC50 read?
**A.** Its EC50 is 0.527 µM.

Same assay, conditions: Mus musculus; FL5.12 cells transfected with Bcl-XL, IL-3-depleted, 3% FBS assay media, 24 hours, CellTiter-Glo; read-out: FL5.12 Bcl-xL, - IL3, EC 50

**Q.** Which EC50 does the source give for `Cc1c(-c2ccc(N3CCc4cccc(C(=O)Nc5nc6ccccc6s5)c4C3)nc2C(=O)O)cnn1CC1CCCCC1` [Example 43, 6-[8-(1,3-benzothiazol-2-ylcarbamoyl)-3,4-dihydroisoquinolin-2(1H)-yl]-3-[1-(cyclohexylmethyl)-5-methyl-1H-pyrazol-4-yl]pyridine-2-carboxylic acid] here?
**A.** The EC50 was 0.004 µM.

**Q.** For `Cc1c(-c2ccc(N3CCc4cccc(C(=O)Nc5nc6ccccc6s5)c4C3)nc2C(=O)O)cnn1C[C@@H]1CC[C@@H]2C[C@H]1C2(C)C` [Example 85, 6-[8-(1,3-benzothiazol-2-ylcarbamoyl)-3,4-dihydroisoquinolin-2(1H)-yl]-3-(1-{[(1R,2R,5R)-6,6-dimethylbicyclo[3.1.1]hept-2-yl]methyl}-5-methyl-1H-pyrazol-4-yl)pyridine-2-carboxylic acid], which EC50 is on record?
**A.** The EC50 was less than 0.001 µM.

**Q.** For `Cc1c(-c2ccc(N3CCc4cccc(C(=O)Nc5nc6ccccc6s5)c4C3)nc2C(=O)O)cnn1Cc1ccccc1OCC1CCOCC1` [Example 99, 6-[8-(1,3-benzothiazol-2-ylcarbamoyl)-3,4-dihydroisoquinolin-2(1H)-yl]-3-{5-methyl-1-[2-(tetrahydro-2H-pyran-4-ylmethoxy)benzyl]-1H-pyrazol-4-yl}pyridine-2-carboxylic acid], which EC50 is on record?
**A.** The EC50 was 0.06 µM.

**Q.** Which EC50 does the source give for `Cc1c(Oc2ccccc2)cccc1-c1ccc(N2CCc3cccc(C(=O)Nc4nc5ccccc5s4)c3C2)nc1C(=O)O` [Example 110, 6-[8-(1,3-benzothiazol-2-ylcarbamoyl)-3,4-dihydroisoquinolin-2(1H)-yl]-3-(2-methyl-3-phenoxyphenyl)pyridine-2-carboxylic acid] here?
**A.** Its EC50 is 0.09 µM.

**Q.** Which EC50 does the source give for `O=C(Nc1nc2ccccc2s1)c1cccc2c1CN(c1ccc(-c3cnn(CC4CCCCO4)c3)c(C(=O)O)n1)CC2` (stereo not drawn) [Example 149, 6-[8-(1,3-benzothiazol-2-ylcarbamoyl)-3,4-dihydroisoquinolin-2(1H)-yl]-3-[1-(tetrahydro-2H-pyran-2-ylmethyl)-1H-pyrazol-4-yl]pyridine-2-carboxylic acid] here?
**A.** Its EC50 is 0.986 µM.

**Q.** How did the EC50 turn out when `Cc1c(-c2ccc(N3CCc4cccc(C(=O)Nc5nc6ccccc6s5)c4C3)nc2C(=O)O)cccc1N(C)c1ccccc1` [Example 156, 6-[8-(1,3-benzothiazol-2-ylcarbamoyl)-3,4-dihydroisoquinolin-2(1H)-yl]-3-{2-methyl-3-[methyl(phenyl)amino]phenyl}pyridine-2-carboxylic acid] was run?
**A.** The EC50 was 0.015 µM.

**Q.** How did the EC50 turn out when `Cc1c(-c2ccc(N3CCc4cccc(C(=O)Nc5nc6ccccc6s5)c4C3)nc2C(=O)O)cccc1N(C)C1CCCC(C)(C)C1` (stereo not drawn) [Example 159, 6-[8-(1,3-benzothiazol-2-ylcarbamoyl)-3,4-dihydroisoquinolin-2(1H)-yl]-3-{3-[(3,3-dimethylcyclohexyl)(methyl)amino]-2-methylphenyl}pyridine-2-carboxylic acid] was run?
**A.** Its EC50 is 0.031 µM.

Molecular target: GST-Bcl-xL (Homo sapiens, UniProt Q07817)
Assay: not given
Details: read-out: TR-FRET binding Bcl-xL Ki

Chain of GST-Bcl-xL (Q07817 whole entry): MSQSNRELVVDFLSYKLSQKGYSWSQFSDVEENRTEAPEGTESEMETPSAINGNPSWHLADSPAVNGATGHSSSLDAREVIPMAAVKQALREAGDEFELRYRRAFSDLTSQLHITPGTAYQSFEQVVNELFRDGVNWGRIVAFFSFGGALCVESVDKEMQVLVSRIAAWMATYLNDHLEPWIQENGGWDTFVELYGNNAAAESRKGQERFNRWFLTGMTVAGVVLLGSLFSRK

**Q.** Which Ki does the source give for `Cc1c(-c2ccc(N3CCc4cccc(C(=O)Nc5nc6ccccc6s5)c4C3)nc2C(=O)O)c(C(=O)O)nn1Cc1ccccc1` [Example 35, 6-[8-(1,3-benzothiazol-2-ylcarbamoyl)-3,4-dihydroisoquinolin-2(1H)-yl]-3-(1-benzyl-3-carboxy-5-methyl-1H-pyrazol-4-yl)pyridine-2-carboxylic acid] here?
**A.** The Ki was 0.091 µM.

**Q.** For `O=C(Nc1nc2ccccc2s1)c1cccc2c1CN(c1ccc(-c3cnn(Cc4c(F)cccc4F)c3)c(C(=O)O)n1)CC2` [Example 55, 6-[8-(1,3-benzothiazol-2-ylcarbamoyl)-3,4-dihydroisoquinolin-2(1H)-yl]-3-[1-(2,6-difluorobenzyl)-1H-pyrazol-4-yl]pyridine-2-carboxylic acid], which Ki is on record?
**A.** Its Ki is 0.018 µM.

**Q.** For `CC(C)(C)c1cc(Cn2cc(-c3ccc(N4CCc5cccc(C(=O)Nc6nc7ccccc7s6)c5C4)nc3C(=O)O)cn2)cc(C(C)(C)C)c1` [Example 71, 6-[8-(1,3-benzothiazol-2-ylcarbamoyl)-3,4-dihydroisoquinolin-2(1H)-yl]-3-[1-(3,5-di-tert-butylbenzyl)-1H-pyrazol-4-yl]pyridine-2-carboxylic acid], which Ki is on record?
**A.** Its Ki is 0.018 µM.

**Q.** For `COCCC1(Cn2ncc(-c3ccc(N4CCc5cccc(C(=O)Nc6nc7ccccc7s6)c5C4)nc3C(=O)O)c2C)CCCCC1` [Example 90, 6-[8-(1,3-benzothiazol-2-ylcarbamoyl)-3,4-dihydroisoquinolin-2(1H)-yl]-3-(1-{[1-(2-methoxyethyl)cyclohexyl]methyl}-5-methyl-1H-pyrazol-4-yl)pyridine-2-carboxylic acid], which Ki is on record?
**A.** The Ki was 0.001 µM.

**Q.** How did the Ki turn out when `O=C(Nc1nc2ccccc2s1)c1cccc2c1CN(c1ccc(-c3ccc(N4CCc5cccc(C(=O)Nc6nc7ccccc7s6)c5C4)nc3C(=O)O)c(C(=O)O)n1)CC2` [Example 132, 6,6'-bis[8-(1,3-benzothiazol-2-ylcarbamoyl)-3,4-dihydroisoquinolin-2(1H)-yl]-3,3'-bipyridine-2,2'-dicarboxylic acid] was run?
**A.** The Ki was 0.003 µM.

**Q.** For `O=C(Nc1nc2ccccc2s1)c1cccc2c1CN(c1ccc(-c3ccc4c(c3)CCN(Cc3ccccc3)C4)c(C(=O)O)n1)CC2` [Example 133, 6-[8-(1,3-benzothiazol-2-ylcarbamoyl)-3,4-dihydroisoquinolin-2(1H)-yl]-3-(2-benzyl-1,2,3,4-tetrahydroisoquinolin-6-yl)pyridine-2-carboxylic acid], which Ki is on record?
**A.** The Ki was 0.0009 µM.

**Q.** How did the Ki turn out when `CNCCOC1(Cn2ncc(-c3ccc(N4CCc5cccc(C(=O)Nc6nc7ccccc7s6)c5C4)nc3C(=O)O)c2C)CCCC(C)(C)C1` (stereo not drawn) [Example 185, 6-[8-(1,3-benzothiazol-2-ylcarbamoyl)-3,4-dihydroisoquinolin-2(1H)-yl]-3-[1-({3,3-dimethyl-1-[2-(methylamino)ethoxy]cyclohexyl}methyl)-5-methyl-1H-pyrazol-4-yl]pyridine-2-carboxylic acid] was run?
**A.** The Ki was less than 0.0001 µM.

**Q.** `Cc1c(-c2ccc(N3CCc4cccc(C(=O)Nc5nc6ccccc6s5)c4C3)nc2C(=O)O)cnn1CC1(C)CCCC(C)(C)O1` (stereo not drawn) [Example 186, 6-[8-(1,3-benzothiazol-2-ylcarbamoyl)-3,4-dihydroisoquinolin-2(1H)-yl]-3-{5-methyl-1-[(2,6,6-trimethyltetrahydro-2H-pyran-2-yl)methyl]-1H-pyrazol-4-yl}pyridine-2-carboxylic acid] was tested. Which Ki did it give?
**A.** Its Ki is less than 0.0001 µM.
